pIC50: −log10 of the molar value.
Assays:
[1] = tested on: gastric HR cancer cells; experiment: In vitro cytotoxicity MTS assay, gastric HR; format: cell-based, human; conditions: 72 hours
Protocol: (§1) A panel of human cancer cells, gastric NUGC3 and HR, nasopharyngeal HONE1, hepatocellular HEP G2 and HA-22T, colorectal DLD1, lung A549, prostate PC3, breast MCF7 and its adriamycin-resistant MCF7/ADR subline, uterus MES-SA and its adriamycin-resistant MES-SA/Dx5 subline, is purchased from Food Industry Research and Development Institute, Hsinchu, Taiwan R.O.C. or American Type Culture Collection, Manassas, Va. U.S.A., are used in in vitro cytotoxicity assays. The human cells are seeded at a cell density of 3000 or 4500 cells/100 μl/well in 96-well flat-bottom plates and incubated for 24 hours at 37° C. in a 5% CO2 incubator. The testing compounds are dissolved in dimethyl sulfoxide (DMSO) and further diluted into the culture medium for treatments of human cancer cells in vitro. The drug-containing media has a final DMSO concentration of ≦0.3%. The compounds of this invention are prepared in culture media for testing at a range of concentrations from 10, 1, 0.1, 0.01 to 0.001 μM. Each compound solution is (200 μl/well in duplicate) in the cell plates and is treated for 72 hours at 37° C., 5% CO2 in an incubator. Actinomycin D at 5 μM and 0.3% DMSO are used as the positive and vehicle controls, respectively. A colorimetric assay using 3-(4,5-dimethylthiazol-2-yl)-5-(3-carboxymethoxyphenyl)-2-(4-sulfophenyl)-2H-tetrazolium (MTS) and phenazine methosulfate (PMS) is used to determine the potency of the compounds. This assay measures cell viability based on the cellular activity in conversion of a tetrazolium salt into a colored soluble formazan product. The optical density (OD) values are measured at 490 nm with a 1420 multilabel counter VICTOR® from Wallac, Turku, Finland. All of the measured values are subtracted with that of the blank control wells without cells before further calculations. The efficacy data are expressed as a percentage normalized to the vehicle controls as calculated in the following formulae. Inhibitory potency (% of vehicle control)=[(OD490compound−OD490blank)/(OD490vehicle−OD490blank)]×100%. The concentration (IC50) of a test compound that inhibits 50% of the cellular activity is determined.

[2] = tested on: breast MCF7 cancer cells; experiment: In vitro cytotoxicity MTS assay, breast MCF7; format: cell-based, human; conditions: 72 hours
Protocol: as §1

[3] = tested on: uterus MES-SA cancer cells; experiment: In vitro cytotoxicity MTS assay, uterus MES-SA; format: cell-based, human; conditions: 72 hours
Protocol: as §1

[4] = tested on: murine leukemic P388 cells; experiment: In vivo anticancer activity, murine leukemic P388 model; parameters: species or system DBA/2J mice; conditions: P388-inoculated mice; for increase of life span: P.O., daily, 4×; for activity in the increase of life span (dose-response): oral
Protocol: The in vivo anticancer activities of the compounds are evaluated by the following murine leukemic P388 model. Inbred female DBA/2J mice of 4-5 week-old were purchased from the Charles River Laboratories Inc., Wilmington, Mass., USA and the National Laboratory Animals Breeding and Research Center, Taipei, Taiwan, ROC. Murine leukemic P388 cells are purchased from the Japanese Collection of Research Bioresources, Japan. P388 cells are cultured and propagated in RPMI1640 medium supplemented with 50 μM 2-mercaptoethanol and 10% fetal bovine serum. Mice at the age of 6 weeks were grouped as the treatment, negative control and positive control groups at 7 to 8 mice per group. All mice are intravenously inoculated with the P388 cells at one million per mouse one day before the treatments initiated. Compounds of this invention are dissolved in dimethyl sulfoxide (DMSO) and then diluted in 0.5% carboxymethyl cellulose with the final concentration of DMSO less than 0.5%. Different treatment groups are orally given (P.O.), respectively, with compounds of different doses for a pharmacological dose-response relationship. Mice of the negative control group are treated with the dosing vehicle, 0.5% carboxymethyl cellulose. Doxorubicin of the maximal tolerated dose, 10 mg/kg, is given intravenously as an experimental positive control. The cancer cell-inoculated animals are monitored twice daily. The time on which 50% of the P388-inoculated mice is still surviving is defined as the medium survival time and is used to calculate the percentage (normalized to the medium survival time of the control group) of increased in life span after treatment, which is then served as the index of treatment response.

[5] = tested on: nasopharyngeal HONE1 cancer cells; experiment: In vitro cytotoxicity MTS assay, nasopharyngeal HONE1; format: cell-based, human; conditions: 72 hours
Protocol: as §1

[6] = tested on: human colorectal SW480 tumor xenograft; experiment: Antitumor activity, human colorectal SW480 tumor xenograft; format: in vivo, athymic nude mice
Protocol: Human colorectal SW480 cancer cells were subcutaneously implanted into the young male athymic nude mice at 1 million cells per mouse. The treatment schedule of 200 mg/kg daily oral administration for 6 weeks was initiated at the time which the tumor size reached 50˜100 mm^3. Compound was orally gavaged to the nude mice subcutaneously bearing human colorectal SW480 tumor xenograft based on the treatment schedule. The tumor size and body weight of the animals were monitored twice a week through out the 70-day period of observation. The tumor growth was suppressed by the daily oral treatments of compound 56. Tumor sizes of the treated and vehicle control groups were compared at the end of 70-day observation. The size of tumor mass subcutaneously implanted in the nude mice for the treated group was reduced to 26% compared to that of the vehicle control group at the end of the observation period.

Question: How did the pIC50 [1] turn out when `Cc1cc(NC(=O)C(=O)c2cn(Cc3ccc(C#N)cc3)c3ccccc23)sn1` [Compound 25] was run?
Answer: 6.47

Question: What about the pIC50 [2] of the same molecule?
Answer: 6.33

Question: And the pIC50 [3]?
Answer: 6.43

Question: And the “increase of life span” value ([4]; 25 mg/kg)?
Answer: 14 ± 1%

Question: And the “increase of life span” value ([4]; 50 mg/kg)?
Answer: 27 ± 3%

Question: And the “increase of life span” value ([4]; 100 mg/kg)?
Answer: 20 ± 8%

Question: And the “increase of life span” value ([4]; 200 mg/kg)?
Answer: 46 ± 24%

Question: And the “activity in the increase of life span (dose-response)” value [4]?
Answer: dose-dependent activity

Question: What about the pIC50 [5] of the same molecule?
Answer: 6.68

Question: How did the pIC50 [1] turn out when `Cc1cc(Cn2cc(C(=O)C(=O)Nc3cc(C)ns3)c3ccccc32)on1` [Compound 56] was run?
Answer: 8.10

Question: And the “size of tumor mass compared to that of the vehicle control group” value ([6]; 200 mg/kg daily oral for 6 weeks, end of 70-day observation)?
Answer: 26%

Question: What about the tumor growth ([6]; 200 mg/kg daily oral treatments) of the same molecule?
Answer: suppressed

Question: What about the “toxicity as noted by loss of the body weight” value ([6]; oral multiple dosing, 200 mg/kg daily for 6 weeks) of the same molecule?
Answer: no obvious toxicity

Question: And the pIC50 [2]?
Answer: 7.44

Question: And the pIC50 [3]?
Answer: 6.53

Question: And the “increase of life span” value ([4]; 25 mg/kg)?
Answer: 26 ± 27%

Question: What about the “increase of life span” value ([4]; 50 mg/kg) of the same molecule?
Answer: 57 ± 20%

Question: What about the “increase of life span” value ([4]; 100 mg/kg) of the same molecule?
Answer: 63 ± 17%

Question: And the “increase of life span” value ([4]; 200 mg/kg)?
Answer: 100 ± 21%

Question: What about the “activity in the increase of life span (dose-response)” value [4] of the same molecule?
Answer: dose-dependent activity

Question: And the pIC50 [5]?
Answer: 8.40
